Test results as given in article PMC11053683, “Tuning of the Anti-Breast Cancer Activity of Betulinic Acid via Its Conversion to Ionic Liquids” (Pharmaceutics, 2024).
Like-named read-outs stand apart in the source and are kept apart here.

How the values were obtained:
[1] = Estimation of the water solubility (DMSO stock diluted with deionized water until sediment); assay type: physicochemical; design: key: “5×”: weak; “10×”: middle; “20×”:good’; “50×”: very good; “100×”: excellent; conditions: 1 mg in 100 μL DMSO, class by dilution factor
Method: The water solubility of betulinic acid and its derivatives was evaluated following the described method. For this purpose, 1 mg of the substance was dissolved in 100 μL of DMSO. The stock solution was diluted with 10 μL potions of deionized water until the sediment was observed. 10 μL portions were added to produce dilutions corresponding to 5 times, 10 times, 20 times, 50 times, and 100 times the original concentration.

[2] = Thermal stability by thermogravimetric analysis (TG); assay type: physicochemical
Method: The test was conducted in the 25–1000 °C temperature range at a heating rate of 10 ° min^−1 under air (flow rate of 25 cm^−3min^−1) and nitrogen (flow rate of 10 cm^−3min^−1). The weight of the samples was 5–7 mg.

MCF-7 cells [3] = assay: MTT assay, cytotoxicity on MCF-7 cells
MCF-7 cells [4] = tested on: MCF-7 cells
MCF-10A cells = assay: MTT assay, cytotoxicity on MCF-10A cells; assay type: cell-based, human; conditions: 72 h
Method: The assay was conducted as described by Mosmann. […] Non-treated cancer cells were used as a control.

MCF-7 cells [5] = assay: Colony formation (clonogenic) assay; assay type: cell-based, human; conditions: for effect on MCF-7 colony formation: 2.5–12.5 µM
Method: Clonogenic assays were performed, and surviving fractions were calculated as described by Franken et al.. Briefly, MCF-7 cells were seeded in 6-well plates at a concentration of 500 cells/well and allowed to adhere for 48 h and subsequently treated with 2.5–12.5 µM concentration of BA and selected BA-ILs (Day 1). The BA and BA-ILs were replenished every 4 days. On Day 10, cells were fixed with 10% formalin in phosphate-buffered saline (PBS), pH 7.4 for 30 min at room temperature (RT), washed with PBS and stained with 0.1% Crystal violet solution in ddH2O, 30 min, RT, followed by a final thorough wash in ddH2O. The colonies were then imaged and analyzed with the open-source platform Fiji.

MCF-7 cells [6] = assay: Cell morphology analysis by light microscopy; assay type: cell-based, human; conditions: MCF-7, 72 h, concentration close to IC50
Method: The changes in cell morphology after a 72 h treatment with BA and [AAOEt][BA] were observed under an inverted microscope (MEIJI, Japan) with objective 10 (Phase DM, MEIJI, Japan) and camera Optikam B1 Digital (Optika, Ponteranica, Bergamo, Italy).

[7] = design: method as in PMID 28273859; conditions: cited from earlier work
[8] = design: method as in PMID 28273859; conditions: model of intestinal mucus, compared to known drugs; cited from earlier work

SMILES | Water Solubility [1] | TTGonset (onset of the thermal degradation) [2] | TDTGmax (maximum decomposition temperature) ([2]; TG, 25–1000 °C, 10 °/min) | IC50 (MCF-7 cells [3]; MCF-7, 72 h, MTT) | other results
C=C(C)C1CCC2(C(=O)O)CCC3(C)C(CCC4C5(C)CCC(O)C(C)(C)C5CCC43C)C12.CCOC(=O)C(N)CS (centres unmarked) [[CysOEt][BA]] | middle | 150.1 °C | 359.2 °C | 9.6 ± 3.8 µM | 
C=C(C)C1CCC2(C(=O)O)CCC3(C)C(CCC4C5(C)CCC(O)C(C)(C)C5CCC43C)C12.CCOC(=O)C(N)CC(C)C (centres unmarked) [[LeuOEt][BA]] |  | 114.9 °C | 359.4 °C | 7.5 ± 1.2 µM | 
C=C(C)C1CCC2(C(=O)O)CCC3(C)C(CCC4C5(C)CCC(O)C(C)(C)C5CCC43C)C12.CCOC(=O)C(N)Cc1ccc(O)cc1 (centres unmarked) [[TyrOEt][BA]] | weak | 202.3 °C | 354.4 °C | 14.2 ± 2.4 µM | cytotoxicity / IC50 compared with BA (MCF-7 cells [4]): cytotoxicity similar to BA
C=C(C)C1CCC2(C(=O)O)CCC3(C)C(CCC4C5(C)CCC(O)C(C)(C)C5CCC43C)C12.CCOC(=O)C(C)N (centres unmarked) [[AlaOEt][BA]] | weak | 92.0 °C | 370.7 °C | 12.7 ± 4.5 µM | 
C=C(C)C1CCC2(C(=O)O)CCC3(C)C(CCC4C5(C)CCC(O)C(C)(C)C5CCC43C)C12.CCOC(=O)C(N)CO (centres unmarked) [[SerOEt][BA]] | middle | 118.2 °C | 364.1 °C | 12.2 ± 2.6 µM | 
C=C(C)C1CCC2(C(=O)O)CCC3(C)C(CCC4C5(C)CCC(O)C(C)(C)C5CCC43C)C12.CCOC(=O)C(N)C(C)CC (centres unmarked) [[IleOEt][BA]] | weak | 127.5 °C | 369.0 °C | 8.5 ± 1.3 µM | cytotoxicity / IC50 compared with BA (MCF-7 cells [4]): IC50 values lower than that of BA
C=C(C)C1CCC2(C(=O)O)CCC3(C)C(CCC4C5(C)CCC(O)C(C)(C)C5CCC43C)C12.C=C(C)C1CCC2(C(=O)O)CCC3(C)C(CCC4C5(C)CCC(O)C(C)(C)C5CCC43C)C12.CCOC(=O)C(N)CCCCN (centres unmarked) [[LysOEt][BA]2] | good | 157.7 °C | 368.8 °C | 4.8 ± 1.3 µM | cell specificity of action (MCF-10A vs MCF-7) (MCF-10A cells): did not show any cell specificity; IC50 (MCF-10A cells; MCF-10A): 4 µM; surviving fraction (cell clonogenicity) (MCF-7 cells [5]; MCF-7, 12.5 µM, vs non-treated control, Day 10): below 20%; clonogenic efficiency (MCF-7 cells [5]; MCF-7, compared to that of BA (abstract)): 20%; changes in cell numbers and morphology (MCF-7 cells [6]): cell rounding and shrinkage
C=C(C)C1CCC2(C(=O)O)CCC3(C)C(CCC4C5(C)CCC(O)C(C)(C)C5CCC43C)C12.CCOC(=O)C(N)C(C)O (centres unmarked) [[ThrOEt][BA]] | middle | 109.0 °C | 353.5 °C | 8.2 ± 2.4 µM | 
C=C(C)C1CCC2(C(=O)O)CCC3(C)C(CCC4C5(C)CCC(O)C(C)(C)C5CCC43C)C12.CCOC(=O)C(N)CCCCN (centres unmarked) [[LysOEt][BA]] | very good | 144.0 °C | 327.3 °C | 12.9 ± 0.3 µM | 
C=C(C)C1CCC2(C(=O)O)CCC3(C)C(CCC4C5(C)CCC(O)C(C)(C)C5CCC43C)C12.CCOC(=O)C(N)Cc1ccccc1 (centres unmarked) [[PheOEt][BA]] | middle | 133.9 °C | 360.1 °C | 12.3 ± 1.7 µM | cytotoxicity / IC50 compared with BA (MCF-7 cells [4]): cytotoxicity similar to BA
C=C(C)C1CCC2(C(=O)O)CCC3(C)C(CCC4C5(C)CCC(O)C(C)(C)C5CCC43C)C12.CCOC(=O)CC(N)C(=O)OCC (centres unmarked) [[Asp(OEt)2][BA]] | middle | 119.8 °C | 357.4 °C | 8.9 ± 2.1 µM | 
C=C(C)C1CCC2(C(=O)O)CCC3(C)C(CCC4C5(C)CCC(O)C(C)(C)C5CCC43C)C12.CCOC(=O)C(N)C(C)C (centres unmarked) [[ValOEt][BA]] | weak | 116.8 °C | 354.0 °C | 25.7 ± 0.8 µM | effect on MCF-7 colony formation (MCF-7 cells [5]): did not inhibit MCF-7 colony formation
C=C(C)[C@@H]1CC[C@]2(C(=O)O)CC[C@]3(C)[C@H](CC[C@@H]4[C@@]5(C)CC[C@H](O)C(C)(C)[C@@H]5CC[C@]43C)[C@@H]12 [BA, Betulinic acid] | weak |  | 358.7 °C |  | TTGonset (onset of the thermal degradation) ([2]; TG, 25–1000 °C, 10 °/min): 305.7 °C; effect on MCF-7 colony formation (MCF-7 cells [5]): did not inhibit MCF-7 colony formation; changes in cell numbers and morphology (MCF-7 cells [6]): reduction in cell numbers; bioavailability [7]: 2.3%; permeability classification [8]: moderate to poorly permeable; IC50 (MCF-7 cells [3]; Homo sapiens, MCF7, 72 h): 11.5 ± 1.8 µM
C=C(C)C1CCC2(C(=O)O)CCC3(C)C(CCC4C5(C)CCC(O)C(C)(C)C5CCC43C)C12.CCOC(=O)C(N)CCSC (centres unmarked) [[MetOEt][BA]] | weak |  | 358.6 °C | 7.5 ± 0.3 µM | TTGonset (onset of the thermal degradation) ([2]; TG, 25–1000 °C, 10 °/min): 125.7 °C; cytotoxicity / IC50 compared with BA (MCF-7 cells [3]; MCF-7, 72 h, MTT): IC50 values lower than that of BA
C=C(C)C1CCC2(C(=O)O)CCC3(C)C(CCC4C5(C)CCC(O)C(C)(C)C5CCC43C)C12.CCOC(=O)C1CCCN1 (centres unmarked) [[ProOEt][BA]] | weak | 121.6 °C | 372.1 °C | 7.6 ± 1.8 µM | 
C=C(C)C1CCC2(C(=O)O)CCC3(C)C(CCC4C5(C)CCC(O)C(C)(C)C5CCC43C)C12.CCOC(=O)C(N)Cc1c[nH]c2ccccc12 (centres unmarked) [[TrpOEt][BA]] | middle |  | 359.8 °C | 13.1 ± 0.4 µM | cytotoxicity / IC50 compared with BA (MCF-7 cells [4]): cytotoxicity similar to BA
